Laboratory results published in ChEMBL document CHEMBL1147984, “Discovery, synthesis, and in vivo activity of a new class of pyrazoloquinazolines as selective inhibitors of aurora B kinase” (J Med Chem, 2007).
≈ marks a conversion by molar mass, not a printed value. Where “and” joins values, the source holds several entries; their conditions need not be identical. Equal values may be shown once.

Experiments:
[1] = molecular target: T1, Aurora kinase A (Homo sapiens, UniProt O14965)
T1 sequence (O14965 whole entry): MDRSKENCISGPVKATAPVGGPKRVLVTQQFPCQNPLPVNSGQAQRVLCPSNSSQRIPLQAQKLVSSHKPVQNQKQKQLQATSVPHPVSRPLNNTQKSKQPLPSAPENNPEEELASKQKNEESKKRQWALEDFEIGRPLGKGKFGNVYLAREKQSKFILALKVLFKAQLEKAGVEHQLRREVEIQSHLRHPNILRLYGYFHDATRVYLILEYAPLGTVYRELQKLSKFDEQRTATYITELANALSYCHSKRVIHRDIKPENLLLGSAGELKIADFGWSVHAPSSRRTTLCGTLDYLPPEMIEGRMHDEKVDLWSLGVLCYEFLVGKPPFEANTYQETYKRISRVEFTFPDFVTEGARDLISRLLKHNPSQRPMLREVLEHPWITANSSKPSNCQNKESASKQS
Description: (§1) Inhibition of human recombinant Aurora A

[2] = molecular target: Aurora kinase B (Homo sapiens, UniProt Q96GD4)
Description: Inhibition of human recombinant Aurora B

[3] = molecular target: SW-620
Description: inhibition of histone-H3 phosphorylation following 24 hr incubation in SW620 tumor cells

[4] = rat
[5] = in vivo; details: rat
[6] = physchem; details: octanol/water, pH 7.4
[7] = protein binding; type: ADME; details: read-out: PB (converted)
[8] = molecular target: T1, Aurora kinase A; remark: listed apart in the source
Description: as §1

[9] = P450 isoforms 3A4; type: ADME
[10] = solubility (tris buffer pH9); type: physicochemical; details: pH 9, read-out: S
[11] = aqueous solubility; type: physicochemical; details: read-out: S

Aurora kinase B, sequence (Q96GD4 whole entry): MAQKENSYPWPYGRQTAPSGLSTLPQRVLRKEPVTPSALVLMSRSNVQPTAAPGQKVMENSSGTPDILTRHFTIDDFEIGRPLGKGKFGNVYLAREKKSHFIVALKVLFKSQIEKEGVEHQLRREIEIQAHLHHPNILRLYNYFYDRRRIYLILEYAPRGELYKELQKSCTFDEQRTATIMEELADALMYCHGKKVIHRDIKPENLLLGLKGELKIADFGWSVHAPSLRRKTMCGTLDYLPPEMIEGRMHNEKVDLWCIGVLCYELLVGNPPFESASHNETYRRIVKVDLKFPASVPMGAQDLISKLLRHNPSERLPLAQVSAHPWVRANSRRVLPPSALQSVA

Compound | Ki [1] | Ki [2] | Ki [3] | other results
COc1cc2c(Nc3cc(CC(=O)Nc4cccc(F)c4F)[nH]n3)ncnc2cc1OCCCN1CCC(O)CC1 | 220 nM | < 1 nM | 78 nM | 
COc1cc2c(Nc3ncc(CC(=O)Nc4cccc(F)c4)s3)ncnc2cc1OCCCN1CCC(CO)CC1 |  |  | 5 nM | fraction unbound [7]: 0.02
CCN(CCO)CCCOc1ccc2c(Nc3cc(CC(=O)Nc4cccc(F)c4F)[nH]n3)ncnc2c1 | 160 nM | < 1 nM | 7 nM | 
CCN(CCO)CCCOc1cc2ncnc(Nc3cc(CC(=O)Nc4cccc(F)c4F)[nH]n3)c2cc1OC | 360 nM | < 1 nM | 45 nM | fraction unbound [7]: 0.17; IC50 [9]: > 10000 nM; logD [6]: 1.9
COc1cc2c(Nc3cc(CC(=O)Nc4cccc(F)c4F)[nH]n3)ncnc2cc1OCCCN1CCC(CO)CC1 |  |  | 540 nM | 
COc1cc2c(Nc3cc(CC(=O)Nc4cccc(F)c4F)[nH]n3)ncnc2cc1OCCCN1CCC[C@@H]1COP(=O)(O)O |  |  |  | solubility [10]: 25 mg/mL (≈ 38.6 mM)
CCN(CCO)CCCOc1cc2ncnc(Nc3cc(CC(=O)Nc4cccc(F)c4)[nH]n3)c2cc1OC | 190 nM | 1 nM | 270 nM | fraction unbound [7]: 0.05; logD [6]: 2.1
CCCN(CCO)CCCOc1ccc2c(Nc3cc(CC(=O)Nc4cccc(F)c4)[nH]n3)ncnc2c1 | 980 nM | < 1 nM | 7 nM | 
COc1cc2c(Nc3cc(CC(=O)Nc4cccc(C#N)c4)[nH]n3)ncnc2cc1OCCCN1CCC(CO)CC1 | 2600 nM |  | > 10000 nM | Ki [8]: 83 nM
COc1cc2c(Nc3cc(CC(=O)Nc4cc(F)cc(F)c4)[nH]n3)ncnc2cc1OCCCN1CCC(CO)CC1 |  |  | 370 nM | 
O=C(Cc1cc(Nc2ncnc3cc(OCCCN4CCC[C@@H]4COP(=O)(O)O)ccc23)n[nH]1)Nc1cccc(F)c1F |  |  |  | solubility [10]: 25 mg/mL (≈ 40.5 mM)
CCN(CCCOc1ccc2c(Nc3cc(CC(=O)Nc4cccc(F)c4)n[nH]3)ncnc2c1)CCOP(=O)(O)O [BARASERTIB] |  |  |  | solubility [10]: 25 mg/mL (≈ 42.5 mM)
COc1cc2c(Nc3cc(CC(=O)Nc4cccc(F)c4F)[nH]n3)ncnc2cc1OCCCN1CCC(CCO)CC1 | 280 nM | < 1 nM | 130 nM | 
CCCN(CCCOc1cc2ncnc(Nc3cc(CC(=O)Nc4cccc(F)c4F)[nH]n3)c2cc1OC)CCOP(=O)(O)O |  |  |  | solubility [10]: 25 mg/mL (≈ 38.5 mM)
COc1cc2c(Nc3ncc(CC(=O)Nc4cccc(F)c4)s3)ncnc2cc1OCCCN1CCC(COP(=O)(O)O)CC1 |  |  |  | solubility [11]: > 10 mg/mL
COc1cc2c(Nc3cc(CC(=O)Nc4cccc(F)c4F)[nH]n3)ncnc2cc1OCCCN(CCO)CC(C)C | 18 nM | < 1 nM | < 1 nM | IC50 [9]: 400 nM; logD [6]: 3.6
COc1cc2c(Nc3cc(CC(=O)Nc4cccc(C(F)(F)F)c4)[nH]n3)ncnc2cc1OCCCN1CCC(CO)CC1 |  | 510 nM | 1800 nM | Ki [8]: 13 nM
COc1cc2c(Nc3cc(CC(=O)Nc4cccc(F)c4)[nH]n3)ncnc2cc1OCCCN1CCC[C@@H]1CO | 110 nM | 1 nM | 330 nM | fraction unbound [7]: 0.05
COc1cccc(NC(=O)Cc2cc(Nc3ncnc4cc(OCCCN5CCC(CO)CC5)c(OC)cc34)[nH]n2)c1 |  |  | 5500 nM | 

Second part, led by results:

Ki [1] | Ki [2] | Ki [3] | Compound | other results
950 nM | < 1 nM | 5 nM | O=C(Cc1cc(Nc2ncnc3cc(OCCCN4CCC[C@@H]4CO)ccc23)n[nH]1)Nc1cccc(F)c1F | AB [4]: 89%; clearance [5]: 15 mL/min/kg; logD [6]: 2.1
350 nM | < 1 nM | 2 nM | CCCN(CCO)CCCOc1ccc2c(Nc3cc(CC(=O)Nc4cccc(F)c4F)[nH]n3)ncnc2c1 | 
39 nM | < 1 nM | 45 nM | COc1cc2c(Nc3cc(CC(=O)Nc4cccc(F)c4F)[nH]n3)ncnc2cc1OCCCN1CCC[C@H]1CO | 
1600 nM and 1200 nM |  |  | COc1cc2c(Nc3cc(CC(=O)Nc4ccccc4)[nH]n3)ncnc2cc1OCCCN1CCC(CO)CC1 | Ki [8]: 18 nM
94 nM | 1 nM | 42 nM | COc1cc2c(Nc3cc(CC(=O)Nc4cccc(F)c4F)[nH]n3)ncnc2cc1OCCCN1CCC[C@@H]1CO | fraction unbound [7]: 0.15; AB [4]: 85%; clearance [5]: 63 mL/min/kg; logD [6]: 2
1400 nM and 470 nM |  |  | COc1cc2c(Nc3cc(CC(=O)Nc4ccccc4F)[nH]n3)ncnc2cc1OCCCN1CCC(CO)CC1 | Ki [8]: 14 nM
220 nM | 2 nM | 290 nM | CCCN(CCO)CCCOc1cc2ncnc(Nc3cc(CC(=O)Nc4cccc(F)c4)[nH]n3)c2cc1OC | 
450 nM |  | 1200 nM | COc1cc2c(Nc3cc(CC(=O)Nc4cccc(Cl)c4)[nH]n3)ncnc2cc1OCCCN1CCC(CO)CC1 | Ki [8]: 8 nM
2000 nM |  | 2600 nM | COc1cc2c(Nc3cc(CC(=O)Nc4ccc(F)cc4)[nH]n3)ncnc2cc1OCCCN1CCC(CO)CC1 | Ki [8]: 30 nM
690 nM | 1 nM | 630 nM | COc1cc2c(Nc3cc(CC(=O)Nc4cccc(F)c4)[nH]n3)ncnc2cc1OCCCNCCO | 
890 nM |  | > 10000 nM | COc1cc2c(Nc3cc(CC(=O)Nc4cccc([N+](=O)[O-])c4)[nH]n3)ncnc2cc1OCCCN1CCC(CO)CC1 | Ki [8]: 39 nM
65 nM | < 1 nM | 120 nM | COc1cc2c(Nc3cc(CC(=O)Nc4cccc(F)c4)[nH]n3)ncnc2cc1OCCCN(C)CCO | 
1400 nM | < 1 nM | 24 nM | O=C(Cc1cc(Nc2ncnc3cc(OCCCN4CCC[C@@H]4CO)ccc23)n[nH]1)Nc1cccc(F)c1 | 
55 nM | < 1 nM | 71 nM | COc1cc2c(Nc3cc(CC(=O)Nc4cccc(F)c4F)[nH]n3)ncnc2cc1OCCCN1CCN(CCO)CC1 | 
4000 nM |  | > 10000 nM | COc1cc2c(Nc3cc(CC(=O)Nc4cccc(O)c4)[nH]n3)ncnc2cc1OCCCN1CCC(CO)CC1 | Ki [8]: 140 nM
